How the values were obtained:
JAK1 = JAK1 (Homo sapiens, UniProt P23458); experiment: Caliper Mobility Shift Assay, kinase inhibition; assay type: biochemical; settings: ATP by Km value
JAK3 = target: T1, JAK3 (Homo sapiens, UniProt P52333); experiment: Caliper Mobility Shift Assay, kinase inhibition; assay type: biochemical; settings: ATP by Km value
T1 sequence (P52333 1-1124): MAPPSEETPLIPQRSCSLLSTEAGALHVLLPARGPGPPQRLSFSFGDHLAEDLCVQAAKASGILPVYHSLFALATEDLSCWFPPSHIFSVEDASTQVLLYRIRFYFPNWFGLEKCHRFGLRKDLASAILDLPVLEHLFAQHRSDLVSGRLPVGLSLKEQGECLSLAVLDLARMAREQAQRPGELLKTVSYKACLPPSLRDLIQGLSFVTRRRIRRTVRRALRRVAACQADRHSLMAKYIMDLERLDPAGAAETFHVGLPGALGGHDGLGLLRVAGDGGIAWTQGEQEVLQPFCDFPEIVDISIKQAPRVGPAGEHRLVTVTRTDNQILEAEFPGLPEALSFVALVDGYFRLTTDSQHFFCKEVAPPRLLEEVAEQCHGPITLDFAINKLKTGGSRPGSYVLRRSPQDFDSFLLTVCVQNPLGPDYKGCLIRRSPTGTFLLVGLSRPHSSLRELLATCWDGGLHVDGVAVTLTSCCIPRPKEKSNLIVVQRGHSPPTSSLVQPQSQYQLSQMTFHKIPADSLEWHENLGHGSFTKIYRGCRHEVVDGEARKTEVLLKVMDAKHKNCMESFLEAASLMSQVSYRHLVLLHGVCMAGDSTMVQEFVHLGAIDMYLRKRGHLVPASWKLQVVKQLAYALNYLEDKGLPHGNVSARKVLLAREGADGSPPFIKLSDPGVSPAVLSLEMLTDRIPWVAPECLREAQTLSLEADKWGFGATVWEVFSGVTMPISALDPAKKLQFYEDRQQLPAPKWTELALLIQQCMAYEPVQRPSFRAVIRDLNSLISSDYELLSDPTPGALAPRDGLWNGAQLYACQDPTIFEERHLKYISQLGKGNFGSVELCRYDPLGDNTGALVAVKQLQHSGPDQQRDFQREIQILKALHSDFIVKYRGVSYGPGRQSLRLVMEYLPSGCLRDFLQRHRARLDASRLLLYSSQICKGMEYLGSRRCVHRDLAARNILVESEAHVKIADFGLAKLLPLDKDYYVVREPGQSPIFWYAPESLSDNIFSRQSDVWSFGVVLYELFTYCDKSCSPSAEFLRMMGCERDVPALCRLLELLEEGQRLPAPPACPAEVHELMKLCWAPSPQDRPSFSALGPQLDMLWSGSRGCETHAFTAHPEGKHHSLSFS

JAK2 = JAK2 (Homo sapiens, UniProt O60674); experiment: Caliper Mobility Shift Assay, kinase inhibition; assay type: biochemical; settings: ATP by Km value
phosphorylated STAT5 = experiment: CTLL-2 cells, IL-2 stimulated, Western blot of phosphorylation; assay type: cell-based; settings: Mus musculus, starved 6 h with compound, IL-2 150 U/mL 10 min, phosphorylated STAT5 by Western blot, read-out: IC50 g (nM) STAT5
Experimental: (§1) Incubating for 10 min and collecting cells. Adding cell lysis buffer for cell lysis. Collecting protein to perform WEST-Blot detection, detecting phosphorylated JAK1, the phosphorylation of JAK2 and the phosphorylated STAT5, and obtaining the IC50 value.

phosphorylated JAK1 = experiment: as above; assay type: cell-based; settings: Mus musculus, starved 6 h with compound, IL-2 150 U/mL 10 min, phosphorylated JAK1 by Western blot, read-out: IC50 g (nM) JAK1
Experimental: as §1

phosphorylation of JAK2 = experiment: as above; assay type: cell-based; settings: Mus musculus, starved 6 h with compound, IL-2 150 U/mL 10 min, phosphorylation of JAK2 by Western blot, read-out: IC50 g (nM) JAK2
Experimental: as §1

[1] = test system: rat with rheumatoid arthritis; experiment: Collagen-induced rheumatoid arthritis model, arthritis score; assay type: in vivo; settings: DBA/1J rat, bovine Type II collagen/CFA model, intragastric administration, scored 2 weeks after administration, 1-4 scoring method
Experimental: For the function of the compound inhibiting rheumatoid arthritis, selecting DBA/1J rat, carrying out subcutaneous injection after complete emulsion of 50 ug of bovine Type II collagen and isometric complete Freund's adjuvant (CFA). Strengthening immunization once 21 days after adequate emulsion of 50 ug of same antigen and incomplete Freund's adjuvant (IFA). Starting observation and recording from the 45th day. Using 1-4 scoring method: 1 score, normal; 2 scores, swelling of one joint; 3 scores, swelling of more than one joint but not all joints; 4 scores, severe swelling or stiffness of the whole claw. Adding scores of all claws to obtain the total score of arthritis in rat. Showing successful model establishment when the total joint score of the rat is more than 1. After successfully establishing the model of rat with rheumatoid arthritis, using the compound of the invention to feed the rat by intragastric administration and scoring arthritis of the rat 2 weeks after administration.

JAK1, sequence (P23458 whole entry, species assumed): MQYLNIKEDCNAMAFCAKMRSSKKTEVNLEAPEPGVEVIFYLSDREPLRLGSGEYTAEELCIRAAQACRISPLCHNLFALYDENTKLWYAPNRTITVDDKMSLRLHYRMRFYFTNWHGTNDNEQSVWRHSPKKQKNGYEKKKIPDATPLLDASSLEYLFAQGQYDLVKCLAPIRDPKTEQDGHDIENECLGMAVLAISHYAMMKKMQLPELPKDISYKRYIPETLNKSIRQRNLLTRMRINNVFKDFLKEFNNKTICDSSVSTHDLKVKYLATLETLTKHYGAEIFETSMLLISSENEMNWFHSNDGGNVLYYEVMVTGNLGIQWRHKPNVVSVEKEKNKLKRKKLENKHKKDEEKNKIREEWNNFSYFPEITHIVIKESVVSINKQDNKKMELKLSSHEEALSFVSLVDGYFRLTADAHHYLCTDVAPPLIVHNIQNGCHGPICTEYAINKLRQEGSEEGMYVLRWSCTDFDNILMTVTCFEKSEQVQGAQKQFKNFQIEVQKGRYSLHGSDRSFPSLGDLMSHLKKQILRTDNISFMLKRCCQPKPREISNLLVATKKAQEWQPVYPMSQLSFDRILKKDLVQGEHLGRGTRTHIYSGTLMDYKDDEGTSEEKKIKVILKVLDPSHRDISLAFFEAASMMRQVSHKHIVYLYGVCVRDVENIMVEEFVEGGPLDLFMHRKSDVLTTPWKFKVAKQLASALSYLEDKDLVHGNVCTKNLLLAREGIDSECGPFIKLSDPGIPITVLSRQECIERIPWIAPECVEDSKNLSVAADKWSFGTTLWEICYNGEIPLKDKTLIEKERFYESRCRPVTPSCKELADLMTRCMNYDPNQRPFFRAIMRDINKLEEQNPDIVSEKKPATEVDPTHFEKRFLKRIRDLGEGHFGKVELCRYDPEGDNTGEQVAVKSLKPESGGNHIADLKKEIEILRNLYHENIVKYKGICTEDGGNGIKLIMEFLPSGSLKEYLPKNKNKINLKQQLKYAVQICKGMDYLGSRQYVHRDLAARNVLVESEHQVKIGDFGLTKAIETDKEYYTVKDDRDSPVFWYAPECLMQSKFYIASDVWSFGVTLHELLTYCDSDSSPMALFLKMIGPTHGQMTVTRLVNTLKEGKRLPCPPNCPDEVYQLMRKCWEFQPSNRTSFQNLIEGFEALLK
JAK2, sequence (O60674 whole entry, species assumed): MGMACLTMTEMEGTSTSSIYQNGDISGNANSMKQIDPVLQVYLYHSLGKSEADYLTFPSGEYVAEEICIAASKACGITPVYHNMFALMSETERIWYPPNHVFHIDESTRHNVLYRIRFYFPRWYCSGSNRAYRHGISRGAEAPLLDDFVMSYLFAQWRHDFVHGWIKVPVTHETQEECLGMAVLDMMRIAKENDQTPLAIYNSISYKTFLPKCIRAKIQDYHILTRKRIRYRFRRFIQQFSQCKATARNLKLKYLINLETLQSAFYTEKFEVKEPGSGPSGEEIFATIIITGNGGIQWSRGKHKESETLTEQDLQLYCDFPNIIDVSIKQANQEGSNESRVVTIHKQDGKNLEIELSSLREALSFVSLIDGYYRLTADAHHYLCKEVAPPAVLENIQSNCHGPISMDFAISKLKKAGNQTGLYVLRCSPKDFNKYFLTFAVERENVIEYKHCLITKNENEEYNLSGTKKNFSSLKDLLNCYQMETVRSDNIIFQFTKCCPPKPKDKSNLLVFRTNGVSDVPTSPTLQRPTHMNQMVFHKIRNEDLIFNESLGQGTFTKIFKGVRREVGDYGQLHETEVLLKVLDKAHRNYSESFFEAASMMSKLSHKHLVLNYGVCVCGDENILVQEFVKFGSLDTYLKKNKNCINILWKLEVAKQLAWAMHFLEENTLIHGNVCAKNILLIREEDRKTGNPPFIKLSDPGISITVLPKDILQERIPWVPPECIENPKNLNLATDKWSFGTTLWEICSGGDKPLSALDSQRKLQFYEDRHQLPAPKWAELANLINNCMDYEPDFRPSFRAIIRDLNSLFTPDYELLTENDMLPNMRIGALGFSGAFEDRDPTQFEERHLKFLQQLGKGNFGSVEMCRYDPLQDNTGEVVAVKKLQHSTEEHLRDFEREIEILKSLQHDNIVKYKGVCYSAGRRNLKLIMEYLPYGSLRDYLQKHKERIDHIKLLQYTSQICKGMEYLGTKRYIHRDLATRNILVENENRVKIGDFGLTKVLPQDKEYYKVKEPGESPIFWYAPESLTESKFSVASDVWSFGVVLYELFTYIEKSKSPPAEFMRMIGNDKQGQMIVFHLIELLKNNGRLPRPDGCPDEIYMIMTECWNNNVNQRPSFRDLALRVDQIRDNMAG

SMILES | IC50 (JAK1) [nM] | IC50 (JAK3) [nM] | IC50 (JAK2) [nM] | IC50 (phosphorylated STAT5) [nM] | IC50 (phosphorylated JAK1) [nM] | IC50 (phosphorylation of JAK2) [nM] | Score of arthritis [1]
CC(C)S(=O)(=O)N1CC(CC#N)(n2cc(-c3ncnc4[nH]ccc34)c3ccc(Cl)cc32)C1 [Example 28, 2-(1-(isopropylsulfonyl)-3-(6-chloro-3-(7H-pyrrole[2,3-d]pyrimidine-4-yl)-1H-indole-1-yl)azetidine-3-yl)acetonitrile] | 6.5 | 64 | 2.4 | – | – | – | –
CCS(=O)(=O)N1CC(CC#N)(n2cc(-c3ncnc4[nH]ccc34)c3cc(C(F)(F)F)ccc32)C1 [Example 63, 2-(1-(ethylsulfonyl)-3-(5-trifluoromethyl-3-(7H-pyrrole[2,3-d]pyrimidine-4-yl)-1H-indole-1-yl)azetidine-3-yl)acetonitrile] | 7.9 | 232 | 2.4 | 196 | 75.2 | 38.3 | –
CCS(=O)(=O)N1CC(CC#N)(n2cc(-c3ncnc4[nH]ccc34)c3ccccc32)C1 [Example 1, 2-(3-(3-(7H-pyrrole[2,3-d]pyrimidine-4-yl)-1H-indole-1-yl)-1-(ethylsulfonyl)azetidine-3-yl)acetonitrile] | 11 | 100 | 1.1 | 125 | 26.3 | 18.4 | –
CCS(=O)(=O)N1CC(CC#N)(n2cc(-c3ncnc4[nH]ccc34)cn2)C1 [Baricitinib, reference compound] | – | – | – | – | – | – | 2.4
N#CCC1(n2cc(-c3ncnc4[nH]ccc34)c3ccccc32)CN(C(=O)[C@@H]2CCCN2)C1 (stereo in doubt) [Example 11, 2-(3-(3-(7H-pyrrole[2,3-d]pyrimidine-4-yl)-1H-indole-1-yl)-1-(pyrrolidine-2-carbonyl)azetidine-3-yl)acetonitrile] | 300 | 521 | 692 | 692 | 30 | 192 | –
CS(=O)(=O)N1CC(CC#N)(n2cc(-c3ncnc4[nH]ccc34)c3ccccc32)C1 [Example 2, 2-(3-(3-(7H-pyrrole[2,3-d]pyrimidine-4-yl)-1H-indole-1-yl)-1-(methylsulfonyl)azetidine-3-yl)acetonitrile] | 8 | 128 | 0.9 | 146 | – | 5.4 | –
CCS(=O)(=O)N1CC(CC#N)(n2cc(-c3ncnc4[nH]ccc34)c3ccc(Br)cc32)C1 [Example 31, 2-(1-(ethylsulfonyl)-3-(6-bromo-3-(7H-pyrrole[2,3-d]pyrimidine-4-yl)-1H-indole-1-yl)azetidine-3-yl)acetonitrile] | 3.5 | 21 | 8.3 | – | – | – | –
CCS(=O)(=O)N1CC(CC#N)(n2cc(-c3ncnc4[nH]ccc34)c3ccc(CC#N)cc32)C1 [Example 51, 2-(1-(ethylsulfonyl)-3-(6-ethylcyano-3-(7H-pyrrole[2,3-d]pyrimidine-4-yl)-1H-indole-1-yl)azetidine-3-yl)acetonitrile] | 45.5 | 172 | 41.6 | – | – | – | –
N#CCC1(n2cc(-c3ncnc4[nH]ccc34)c3ccccc32)CN(S(=O)(=O)N2CCCC2)C1 [Example 10] | 7 | 67 | 3.5 | – | – | – | –
CCOc1ccc2c(-c3ncnc4[nH]ccc34)cn(C3(CC#N)CN(S(=O)(=O)CC)C3)c2c1 [Example 59, 2-(1-(ethylsulfonyl)-3-(6-ethoxyl-3-(7H-pyrrole[2,3-d]pyrimidine-4-yl)-1H-indole-1-yl)azetidine-3-yl)acetonitrile] | 25.4 | 90 | 2.8 | – | – | – | –
CS(=O)(=O)N1CC(CC#N)(n2cc(-c3ncnc4[nH]ccc34)c3ccc(F)c(F)c32)C1 [Example 32, 2-(1-(methylsulfonyl)-3-(5,6-difluoro-3-(7H-pyrrole[2,3-d]pyrimidine-4-yl)-1H-indole-1-yl)azetidine-3-yl)acetonitrile] | 4.5 | 124 | 6.3 | – | – | – | –

Continued, in another order:

IC50 (JAK1) [nM] | IC50 (JAK3) [nM] | IC50 (JAK2) [nM] | IC50 (phosphorylated STAT5) [nM] | IC50 (phosphorylated JAK1) [nM] | IC50 (phosphorylation of JAK2) [nM] | SMILES | Score of arthritis [1]
30.5 | 58 | 11.6 | – | – | – | CCS(=O)(=O)N1CC(CC#N)(n2cc(-c3ncnc4[nH]ccc34)c3cc(F)cc(F)c32)C1 [Example 47, 2-(1-(ethylsulfonyl)-3-(5,7-difluoro-3-(7H-pyrrole[2,3-d]pyrimidine-4-yl)-1H-indole-1-yl)azetidine-3-yl)acetonitrile] | –
3.5 | 34 | 0.72 | – | – | – | CCS(=O)(=O)N1CC(CC#N)(n2cc(-c3ncnc4[nH]ccc34)c3ccc(Cl)cc32)C1 [Example 26, 2-(1-(ethylsulfonyl)-3-(6-chloro-3-(7H-pyrrole[2,3-d]pyrimidine-4-yl)-1H-indole-1-yl)azetidine-3-yl)acetonitrile] | –
13.3 | 67 | 28.4 | – | – | – | CCCS(=O)(=O)N1CC(CC#N)(n2cc(-c3ncnc4[nH]ccc34)c3c(F)cc(F)cc32)C1 [Example 43, 2-(1-(propylsulfonyl)-3-(6,8-difluoro-3-(7H-pyrrole[2,3-d]pyrimidine-4-yl)-1H-indole-1-yl)azetidine-3-yl)acetonitrile] | –
5.4 | 17 | 1.4 | – | – | – | CCS(=O)(=O)N1CC(CC#N)(n2cc(-c3ncnc4[nH]ccc34)c3ccc(CC(F)(F)F)cc32)C1 [Example 53, 2-(1-(ethylsulfonyl)-3-(6-trifluoroethyl-3-(7H-pyrrole[2,3-d]pyrimidine-4-yl)-1H-indole-1-yl)azetidine-3-yl)acetonitrile] | –
10.5 | 72 | 4.6 | – | – | – | CCS(=O)(=O)N1CC(CC#N)(n2cc(-c3ncnc4[nH]ccc34)c3c(F)ccc(F)c32)C1 [Example 48, 2-(1-(ethylsulfonyl)-3-(5,8-difluoro-3-(7H-pyrrole[2,3-d]pyrimidine-4-yl)-1H-indole-1-yl)azetidine-3-yl)acetonitrile] | –
15.2 | 36 | 2.5 | – | – | – | CCS(=O)(=O)N1CC(CC#N)(n2cc(-c3ncnc4[nH]ccc34)c3ccc(C)cc32)C1 [Example 54, 2-(1-(ethylsulfonyl)-3-(6-methyl-3-(7H-pyrrole[2,3-d]pyrimidine-4-yl)-1H-indole-1-yl)azetidine-3-yl)acetonitrile] | –
3.6 | 30 | 1 | 130 | 33.9 | 29.9 | CCS(=O)(=O)N1CC(CC#N)(n2cc(-c3ncnc4[nH]ccc34)c3cc(F)ccc32)C1 [Example 62, 2-(1-(ethylsulfonyl)-3-(5-fluoro-3-(7H-pyrrole[2,3-d]pyrimidine-4-yl)-1H-indole-1-yl)azetidine-3-yl)acetonitrile] | –

Source: patent publication US10385056B2, “4-substituted pyrrolo[2,3-d]pyrimidine compound and use thereof” (JIANGSU CAREFREE PHARMACEUTICAL CO., LTD, priority 2014, dated 2019)
